Read-outs that look alike come from different tables or passages of the source.
Experiments:
Assay in all cases: Determination of MIC values (BHI broth, 96 well microtiter plate)
Assay type in all cases: cell-based
[1] = test system: Streptococcus pneumoniae; settings: for MIC: Streptococcus pneumoniae, read-out: MIC S. pneu
How it was run: (§1)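 Compounds were serially diluted 1:2 in DMSO and added 1:100 to BHI broth to final 25–0.39 µg/mL plus a no-compound control. Wells received an inoculum of 10^5 to 10^6 cells/mL from a 0.5 McFarland culture and were incubated overnight (about 16 hours) at 37° C under 7-10% CO2. MIC is the lowest concentration without visible growth.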

[2] = test system: methicillin-resistant Staphylococcus aureus (MRSA); settings: MRSA; for MIC: Staphylococcus aureus, read-out: MIC MRSA
How it was run: as §1

[3] = test system: vancomycin-resistant Enterococcus spp. (VRE); settings: for MIC: Enterococcus, VRE, read-out: MIC VREF
How it was run: as §1

[4] = BHI broth, 37° C., about 16 hours
[5] = 16 h, BHI broth, 37° C., about 16 hours
[6] = S. pneu, BHI broth, overnight 37° C.
[7] = VREF, BHI broth, overnight 37° C.
[8] = BHI broth, 37° C., overnight (about 16 hours)
[9] = 16 h, BHI broth, 37° C., overnight (about 16 hours)

Row | SMILES | MIC [1, 4] | MIC [2, 5] | MIC [3, 5] | MIC [1, 6] | MIC ([2]; BHI broth, overnight 37° C.) | MIC [3, 7] | also measured
1 | CN1CCN(CC#Cc2ccc3nc(-c4cn(C)c5ccc(Br)cc45)cc(C(=O)NCCN)c3c2)CC1 [Example 405] | < 25 µg/mL | < 25 µg/mL | < 25 µg/mL | – | – | – | –
2 | Cn1cc(-c2cc(C(=O)NCc3cccc(CN)c3)c3cc(I)ccc3n2)c2cc(Cl)ccc21 [Example 225] | – | – | – | < 7 µg/mL | < 7 µg/mL | < 7 µg/mL | –
3 | Cc1[nH]c2ccc(Cl)cc2c1-c1ccc2cccc(C)c2n1 [Example 425] | < 7 µg/mL | < 7 µg/mL | < 7 µg/mL | – | – | – | –
4 | O=C(NCc1nc2ccccc2[nH]1)c1cc(-c2c[nH]c3ccc(Br)cc23)nc2ccc(C(F)(F)F)cc12 [Example 172] | – | – | – | – | – | – | MIC [1, 8]: < 7 µg/mL; MIC [2, 9]: < 7 µg/mL; MIC [3, 9]: > 25 µg/mL
5 | N#Cc1ccc2[nH]cc(-c3ccc4cc(Cl)ccc4n3)c2c1 [Example 292] | – | – | – | – | – | – | MIC S. pneu [1, 6]: > 25 µg/mL; MIC MRSA ([2]; BHI broth, overnight 37° C.): > 25 µg/mL; MIC VREF [3, 7]: >25 µg/mL
6 | Clc1ccc2nc(-c3c[nH]c4ccc(OCc5ccccc5)cc34)ccc2c1 [Example 289] | – | – | – | < 7 µg/mL | < 7 µg/mL | > 25 µg/mL | –
7 | NCc1ccc(CNC(=O)c2cc(-c3c[nH]c4ccc(Br)cc34)nc3cc(Br)ccc23)cc1 [Example 138] | – | – | – | – | – | – | MIC [1, 8]: < 7 µg/mL; MIC [2, 9]: < 7 µg/mL; MIC [3, 9]: < 7 µg/mL
8 | C[Si](C)(C)CCOC(=O)n1cc(C=O)c2cc(Br)ccc21 [Example 382] | – | – | – | – | – | – | MIC [1]: > 25 µg/mL; MIC [2]: > 25 µg/mL; MIC [3]: > 25 µg/mL
9 | Cc1cc2nc(-c3c[nH]c4ccc(Br)cc34)cc(C(=O)NCc3ccc(CN)cc3)c2cc1C [Example 118] | – | – | – | – | – | – | MIC [1, 8]: < 7 µg/mL; MIC [2, 9]: < 7 µg/mL; MIC [3, 9]: < 7 µg/mL
10 | COc1ccc2[nH]cc(-c3ccc4cc(C)ccc4n3)c2c1 [Example 438] | > 25 µg/mL | > 25 µg/mL | > 25 µg/mL | – | – | – | –
11 | Clc1ccc2nc(-c3c[nH]c4ccc(Cl)cc34)ccc2c1 [Example 169] | – | – | – | – | – | – | MIC [1, 8]: < 7 µg/mL; MIC [2, 9]: < 7 µg/mL; MIC [3, 9]: > 25 µg/mL
12 | COc1ccc2[nH]cc(-c3cc(Cl)c4ccc(Cl)cc4n3)c2c1 [Example 464] | < 7 µg/mL | < 7 µg/mL | > 25 µg/mL | – | – | – | –
13 | Clc1cc(-c2c[nH]c3cccc(Cl)c23)nc2ccccc12 [Example 341] | – | – | – | < 7 µg/mL | < 7 µg/mL | < 7 µg/mL | –
14 | Clc1ccc2[nH]cc(-c3ccc4ccccc4n3)c2c1 [Example 168] | – | – | – | – | – | – | MIC [1, 8]: < 7 µg/mL; MIC [2, 9]: < 7 µg/mL; MIC [3, 9]: > 25 µg/mL
15 | Cc1cccc2ccc(-c3c[nH]c4ccc(Cl)cc34)nc12 [Example 427] | > 25 µg/mL | > 25 µg/mL | > 25 µg/mL | – | – | – | –

Now from value to compound, other results behind:

Row | MIC [1, 4] | MIC [2, 5] | MIC [3, 5] | MIC [1, 6] | MIC ([2]; BHI broth, overnight 37° C.) | MIC [3, 7] | SMILES | also measured
16 | < 7 µg/mL | < 7 µg/mL | < 7 µg/mL | – | – | – | OCc1cc(-c2c[nH]c3ccc(Br)cc23)nc2c(I)cccc12 [Example 454] | –
17 | – | – | – | < 7 µg/mL | < 7 µg/mL | < 7 µg/mL | NCCNC(=O)c1cc(-c2c[nH]c3ccc(Cl)cc23)nc2cc(Br)ccc12 [Example 312] | –
18 | – | – | – | < 7 µg/mL | < 25 µg/mL | > 25 µg/mL | Cn1cc(-c2cc(C(=O)NCc3cccc(CN)c3)c3ccc(F)cc3n2)c2cc(Br)ccc21 [Example 327] | –
19 | < 7 µg/mL | < 7 µg/mL | < 7 µg/mL | – | – | – | OCc1cc(-c2c[nH]c3ccc(Br)cc23)nc2cc(I)ccc12 [Example 453] | –
20 | < 7 µg/mL | < 7 µg/mL | < 7 µg/mL | – | – | – | CNCCN(C)C(=O)c1cc(-c2c[nH]c3ccc(Br)cc23)nc2ccc(I)cc12 [Example 502] | –
21 | – | – | – | < 7 µg/mL | < 7 µg/mL | < 7 µg/mL | NCCNC(=O)c1cc(-c2c[nH]c3ccc(Br)cc23)nc2ccc(Br)cc12 [Example 285] | –
22 | – | – | – | < 7 µg/mL | < 7 µg/mL | > 25 µg/mL | Clc1cc(-c2c[nH]c3ccc(Br)cc23)nc2ccccc12 [Example 345] | –
23 | – | – | – | < 7 µg/mL | < 7 µg/mL | > 25 µg/mL | COc1ccc(NC(=O)CCc2cc(-c3c[nH]c4ccc(Br)cc34)nc3ccc(C#CCN4CCCCC4)cc23)cc1 [Example 266] | –
24 | – | – | – | < 25 µg/mL | < 25 µg/mL | > 25 µg/mL | Oc1ccc2[nH]cc(-c3cc(Cl)c4ccccc4n3)c2c1 [Example 347] | –

Reference: patent US6376670B1, “Quinoline-indole antimicrobial agents, uses and compositions related thereto” (Sepracor Inc., priority 1997, dated 2002)
